{"source": "patent US7671085B2", "about": "“Non-steroidal farnesoid X receptor modulators and methods for the use thereof” (The Salk Institute for Biological Studies, priority 2002, dated 2010)", "note": "pEC50: −log10 of the molar value. Entries after “also recorded” stand apart in the source; their conditions may differ.", "data": [{"target": "T1, FXR (Homo sapiens, UniProt Q96RI1)", "T1 construct": "using a full length FXR on a natural response element; expressed in transfected cells", "T1 sequence (Q96RI1 1-486)": "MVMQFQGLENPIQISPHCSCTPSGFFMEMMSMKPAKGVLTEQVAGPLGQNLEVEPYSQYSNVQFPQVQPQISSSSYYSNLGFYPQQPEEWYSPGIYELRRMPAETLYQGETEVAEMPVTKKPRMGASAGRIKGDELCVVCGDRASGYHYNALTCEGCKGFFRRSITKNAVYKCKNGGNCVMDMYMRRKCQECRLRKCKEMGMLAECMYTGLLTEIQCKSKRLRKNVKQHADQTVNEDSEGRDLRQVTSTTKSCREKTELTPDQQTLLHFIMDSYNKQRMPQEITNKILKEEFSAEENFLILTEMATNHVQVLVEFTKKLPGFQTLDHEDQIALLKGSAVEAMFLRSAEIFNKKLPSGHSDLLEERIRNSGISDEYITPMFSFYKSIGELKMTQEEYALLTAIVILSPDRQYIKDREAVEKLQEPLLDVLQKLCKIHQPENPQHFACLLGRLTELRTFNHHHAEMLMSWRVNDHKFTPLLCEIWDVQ", "assay": "cell-based FXR transcription assay, FXR responsive promoter linked to luciferase reporter", "conditions": "cell-based FXR reporter assay; determined with Prism 3.0", "description": "(§1) In addition to ensuring that only cell permeable compounds were selected for further optimization, this approach allows for the detection of FXR activation in a natural system (i.e., correct folding of the protein and in the presence of a complete compliment of co-activators and co-repressors).\n(§2) The feasibility of creating high throughput screens (HTS) for ORs was explored using FXR as a candidate orphan receptor (OR) with a known activator, chenodeoxycholic acid (CDCA) as a ligand. The screen is based on the co-transfection of a full-length receptor with the reporter vector containing a natural hormone response element under a minimal eukaryotic promoter. […] Using this 384-well format, the high throughput screening (HTS) approach to FXR as a candidate OR was employed. […] A central question in the feasibility studies is whether this library is suitable for screening for nuclear receptor ligands. Samples of this library were first reformatted into a 384-well format and then subjected to the FXR cell-based assays described above and assessed for FXR-mediated transcriptional activity. Cells were exposed to approximately 10 μM of sample for 18 hrs prior to washing and luciferase analysis.\n(§3) EC50 values were determined with Prism 3.0 software via the activity of the subject compound in the previously described cell based assay.", "values": [{"smiles": "COC(=O)/C=C/c1cccc(N(Cc2ccc3c(c2OC)OC(C)(C)C=C3)C(=O)C2CCCCC2)c1", "note": "[Compound 65]", "pEC50": 8.45}, {"smiles": "CCOC(=O)C=Cc1cccc(N(Cc2ccc(C=CC(=O)OC(C)(C)C)cc2)C(=O)C2CCCCC2)c1", "note": "[Compound 133]", "pEC50": 6.59}]}, {"target": "T1, FXR", "assay": "cell-based FXR transcription assay, FXR responsive promoter linked to luciferase reporter", "conditions": "cell-based FXR reporter assay; footnote a not given", "description": "as §1, §2, §3", "values": [{"smiles": "COC(=O)/C=C/c1cccc(N(Cc2ccc3c(c2OC)OC(C)(C)C=C3)C(=O)C2CCCCC2)c1", "note": "[Compound 65]", "RE^a": 0.40}, {"smiles": "COC(=O)C=Cc1cccc(N(Cc2ccc3c(c2OC)OC(C)(C)C=C3)C(=O)c2ccccc2)c1", "note": "[Compound 68]", "RE^a": 0.83}, {"smiles": "COC(=O)/C=C/c1cccc(N(Cc2ccc3c(c2OC)OC(C)(C)C2C3C2(Cl)Cl)C(=O)c2ccccc2)c1", "note": "(stereo not shown) [Compound 102]", "RE^a": 0.64}, {"smiles": "COC(=O)C=Cc1cccc(N(Cc2ccc(C=CC(=O)O)cc2)C(=O)C2CCCCC2)c1", "note": "[Compound 104]", "RE^a": 0.08}, {"smiles": "COC(=O)/C=C/c1cccc(N(Cc2ccc(/C=C/C(=O)OC(C)(C)C)cc2)C(=O)C2CCCCC2)c1", "note": "[Compound 105]", "RE^a": 2.12}, {"smiles": "COC(=O)/C=C/c1cccc(N(Cc2ccccc2)C(=O)C2CCCCC2)c1", "note": "[Compound 110]", "RE^a": 0.09}, {"smiles": "COC(=O)/C=C/c1cccc(N(Cc2ccc(Br)cc2)C(=O)C2CCCCC2)c1", "note": "[Compound 112]", "RE^a": 0.28}, {"smiles": "COC(=O)C=Cc1cccc(N(Cc2cccc(Br)c2)C(=O)C2CCCCC2)c1", "note": "[Compound 113]", "RE^a": 0.11}, {"smiles": "COC(=O)C=Cc1cccc(N(Cc2ccccc2Br)C(=O)C2CCCCC2)c1", "note": "[Compound 114]", "RE^a": 0.11}, {"smiles": "COC(=O)/C=C/c1cccc(N(Cc2cccc(OC)c2)C(=O)C2CCCCC2)c1", "note": "[Compound 115]", "RE^a": 0.11}, {"smiles": "COC(=O)/C=C/c1cccc(N(Cc2cccc(C(F)(F)F)c2)C(=O)C2CCCCC2)c1", "note": "[Compound 117]", "RE^a": 0.12}, {"smiles": "COC(=O)/C=C/c1cccc(N(Cc2cc(OC)cc(OC)c2)C(=O)C2CCCCC2)c1", "note": "[Compound 118]", "RE^a": 0.11}, {"smiles": "COC(=O)C=Cc1cccc(N(Cc2ccc(C=Cc3ccc(OC)cc3)cc2)C(=O)C2CCCCC2)c1", "note": "[Compound 122]", "RE^a": 1.67}, {"smiles": "COC(=O)C=Cc1cccc(N(Cc2ccc(C=Cc3ccc(C(C)(C)C)cc3)cc2)C(=O)C2CCCCC2)c1", "note": "[Compound 123]", "RE^a": 0.29}, {"smiles": "COC(=O)/C=C/c1cccc(N(Cc2ccc(-c3ccccc3)cc2)C(=O)C2CCCCC2)c1", "note": "[Compound 124]", "RE^a": 0.71}, {"smiles": "COC(=O)/C=C/c1cccc(N(Cc2ccc(-c3ccc(SC)cc3)cc2)C(=O)C2CCCCC2)c1", "note": "[Compound 125]", "RE^a": 1.74}, {"smiles": "COC(=O)/C=C/c1cccc(N(Cc2ccc(-c3cc(Cl)cc(Cl)c3)cc2)C(=O)C2CCCCC2)c1", "note": "[Compound 126]", "RE^a": 0.95}, {"smiles": "COC(=O)/C=C/c1cccc(N(Cc2ccc(-c3cccc(C(C)=O)c3)cc2)C(=O)C2CCCCC2)c1", "note": "[Compound 127]", "RE^a": 1.30}, {"smiles": "COC(=O)C=Cc1cccc(N(Cc2ccc(-c3ccc(C)s3)cc2)C(=O)C2CCCCC2)c1", "note": "[Compound 128]", "RE^a": 1.78}, {"smiles": "COC(=O)C=Cc1cccc(N(Cc2ccc(-c3ccc(C(C)=O)s3)cc2)C(=O)C2CCCCC2)c1", "note": "[Compound 129]", "RE^a": 1.48}, {"smiles": "COC(=O)/C=C/c1cccc(NC(=O)C2CCCCC2)c1", "note": "[Compound 132]", "RE^a": 0.09}, {"smiles": "CCOC(=O)C=Cc1cccc(N(Cc2ccc(C=CC(=O)OC(C)(C)C)cc2)C(=O)C2CCCCC2)c1", "note": "[Compound 133]", "RE^a": 2.07}]}, {"target": "T1, FXR", "assay": "cell-based FXR transcription assay, FXR responsive promoter linked to luciferase reporter", "conditions": "cell-based reporter assay, SAR discussion", "description": "as §1, §2, §3", "values": [{"smiles": "COC(=O)/C=C/c1cccc(N(Cc2ccc3c(c2OC)OC(C)(C)[C@@H](O)[C@H]3O)C(=O)c2ccccc2)c1", "note": "(relative stereo) [Compound 93]", "FXR activation, in words": "did not improve the activity"}, {"smiles": "COc1c(CN(C(=O)C2CC2)c2ccccc2)ccc2c1OC(C)(C)C=C2", "note": "[Compound 26]", "FXR activation, in words": "among the most active at this stage"}, {"smiles": "COc1c(CN(C(=O)C2CCCCC2)c2ccccc2)ccc2c1OC(C)(C)C=C2", "note": "[Compound 27]", "FXR activation, in words": "among the most active at this stage"}, {"smiles": "COC(=O)/C=C/c1cccc(N(Cc2ccc3c(c2OC)OC(C)(C)C=C3)C(=O)C2CC2)c1", "note": "[Compound 29]", "FXR activation, in words": "substantially better activator of FXR than compound 26; also recorded: capable of activating FXR to a significant extent"}, {"smiles": "CCOC(=O)/C=C/c1cccc(N(Cc2ccc3c(c2OC)OC(C)(C)C=C3)C(=O)C2CC2)c1", "note": "[Compound 30]", "FXR activation, in words": "inactive"}, {"smiles": "COC/C=C/c1cccc(N(Cc2ccc3c(c2OC)OC(C)(C)C=C3)C(=O)C2CC2)c1", "note": "[Compound 33]", "FXR activation, in words": "capable of activating FXR to a significant extent"}, {"smiles": "COc1c(CN(C(=O)C2CC2)c2cccc(/C=C/C#N)c2)ccc2c1OC(C)(C)C=C2", "note": "[Compound 34]", "FXR activation, in words": "inactive"}, {"smiles": "CNC(=O)/C=C/c1cccc(N(Cc2ccc3c(c2OC)OC(C)(C)C=C3)C(=O)C2CC2)c1", "note": "[Compound 38]", "FXR activation, in words": "inactive"}, {"smiles": "COC(=O)/C=C/c1ccc(N(Cc2ccc3c(c2OC)OC(C)(C)C=C3)C(=O)C2CC2)cc1", "note": "[Compound 53]", "FXR activation, in words": "does not activate FXR"}, {"smiles": "COC(=O)/C=C/c1cccc(N(Cc2ccccc2)Cc2ccc3c(c2OC)OC(C)(C)C=C3)c1", "note": "[Compound 78]", "FXR activation, in words": "inactive"}, {"smiles": "COC(=O)/C=C/c1cccc(N(C)Cc2ccc3c(c2OC)OC(C)(C)C=C3)c1", "note": "[Compound 79]", "FXR activation, in words": "inactive"}, {"smiles": "COC(=O)/C=C/c1cccc(N(Cc2ccc3c(c2OC)OC(C)(C)C=C3)S(=O)(=O)c2ccc(C)cc2)c1", "note": "[Compound 82]", "FXR activation, in words": "inactive"}, {"smiles": "COC(=O)/C=C/c1cccc(N(Cc2ccc3c(c2OC)OC(C)(C)C=C3)C(=S)C2CC2)c1", "note": "[Compound 83]", "FXR activation, in words": "inactive"}, {"smiles": "COC(=O)/C=C/c1cccc(N(Cc2ccc3c(c2OC)OC(C)(C)C=C3)C(=S)NCc2ccccc2)c1", "note": "[Compound 84]", "FXR activation, in words": "inactive"}, {"smiles": "COC(=O)/C=C/c1cccc(N(Cc2ccc3c(c2OC)OC(C)(C)C=C3C(=O)O)C(=O)c2ccccc2)c1", "note": "[Compound 86]", "FXR activation, in words": "did not improve the activity"}, {"smiles": "COC(=O)C=Cc1cccc(N(Cc2ccc3c(c2OC)OC(C)(C)C(O)C3O)C(=O)c2ccccc2)c1", "note": "(stereo not shown) [Compound 94]", "FXR activation, in words": "did not improve the activity"}, {"smiles": "COC(=O)C=Cc1cccc(N(Cc2ccc3c(c2OC)OC(C)(C)C(O)C3Sc2ccccc2)C(=O)c2ccccc2)c1", "note": "(stereo not shown) [Compound 98]", "FXR activation, in words": "did not improve the activity"}, {"smiles": "COC(=O)C=Cc1cccc(N(Cc2ccc3c(c2OC)OC(C)(C)C(O)C3N2CCCCC2)C(=O)c2ccccc2)c1", "note": "(stereo not shown) [Compound 100]", "FXR activation, in words": "did not improve the activity"}, {"smiles": "COC(=O)/C=C/c1cccc(N(Cc2cccc(/C=C/C(=O)OC(C)(C)C)c2)C(=O)C2CCCCC2)c1", "note": "[Compound 107]", "FXR activation, in words": "only micromolar potency"}, {"smiles": "COC(=O)/C=C/c1cccc(N(Cc2ccccc2/C=C/C(=O)OC(C)(C)C)C(=O)C2CCCCC2)c1", "note": "[Compound 109]", "FXR activation, in words": "only micromolar potency"}, {"smiles": "COC(=O)/C=C/c1cccc(N(Cc2ccc(-c3ccc(SC)cc3)cc2)C(=O)C2CCCCC2)c1", "note": "[Compound 125]", "FXR activation, in words": "excellent activity"}, {"smiles": "CCOC(=O)C=Cc1cccc(N(Cc2ccc(C=CC(=O)OC(C)(C)C)cc2)C(=O)C2CCCCC2)c1", "note": "[Compound 133]", "FXR activation, in words": "marked decline in potency"}]}]}
